Values after ≈ are worked out from the molar mass of the structure shown.
Columns and labels:
[1] = Solubility of compound in 0.1 M HCl; assay type: physicochemical
[2] = Solubility of the compound in FaSSIF; assay type: physicochemical
[3] = Solubility of compound in 0.1 M HCl assessed as equilibrium pH; assay type: physicochemical; settings: buffer
[4] = Solubility of the compound in FaSSIF assessed as equilibrium pH; assay type: physicochemical; settings: simulated gi fluid
Plasmodium falciparum [5] = experiment: microbe, parasite or virus in culture; settings: D10, 72 h
Description: Antiplasmodial activity against chloroquine-sensitive Plasmodium falciparum D10 incubated for 72 hrs by spectrophotometry based parasite lactate dehydrogenase assay

Plasmodium falciparum [6] = experiment: microbe, parasite or virus in culture; settings: W2, 72 h
Description: Antiplasmodial activity against chloroquine-resistant Plasmodium falciparum W2 incubated for 72 hrs by spectrophotometry based parasite lactate dehydrogenase assay

[7] = Aqueous solubility of compound in PBS at pH 7.4; assay type: physicochemical
[8] = Tmax in Sprague-Dawley rat at 10 mg/kg, po administered as single dose; assay type: ADME, organism-based; settings: in vivo
[9] = Cmax in Sprague-Dawley rat at 10 mg/kg, po administered as single dose; assay type: ADME, organism-based; parameters: route oral, dose 10 mg/kg; settings: in vivo
[10] = AUC (infinity) in Sprague-Dawley rat at 10 mg/kg, po administered as single dose; assay type: ADME, organism-based; parameters: time infinity, route oral, dose 10 mg/kg; settings: in vivo
[11] = Oral bioavailability in Sprague-Dawley rat at 10 mg/kg administered as single dose; assay type: ADME, organism-based; settings: in vivo
[12] = Intrinsic clearance in rat hepatocytes measured per 10^6 cells up to 120 mins by LC-MS analysis; assay type: ADME, cell-based, Hepatocyte; settings: read-out: CLH
[13] = Intrinsic clearance in human liver microsome up to 30 mins by LC-MS analysis; assay type: ADME; settings: liver microsomes, read-out: CLH
[14] = Intrinsic clearance in mouse liver microsome by LC-MS/MS analysis; assay type: ADME, microsomes
Plasmodium falciparum [15] = experiment: Antiplasmodial activity against chloroquine-sensitive Plasmodium falciparum 3D7; assay type: functional, organism-based
[16] = Intrinsic clearance in mouse liver microsome assessed as half life by LC-MS/MS analysis; assay type: ADME; settings: microsomes

| Compound | solubility [1] [µg/mL] | solubility at 1 h [2] [µg/mL] | pH [3] | pH [4] | IC50 (Plasmodium falciparum [5]) [nM] | IC50 (Plasmodium falciparum [6]) [nM] | solubility [7] [µM] | hepatocyte CLint [12] [µL/min/1e6 cells] | microsomal CLint [13] [µL/min/mg] | further results |
| --- | --- | --- | --- | --- | --- | --- | --- | --- | --- | --- |
| FC1CCN(Cc2ccc(C3CCC4(CC3)OOC3(OO4)C4CC5CC(C4)CC3C5)cc2)CC1 (centres undefined) | 101 (≈ 214 µM) | 14.8 (≈ 31.4 µM) | 1 | 6.1 | 16.1 | 11.7 |  |  |  |  |
| c1cc(C2CCC3(CC2)OOC2(OO3)C3CC4CC(C3)CC2C4)ccc1CN1CCOCC1 (centres undefined) | 21.2 (≈ 46.5 µM) | 24 (≈ 52.7 µM) | 1 | 6.1 | 9.38 | 8.65 | 0.106 (≈ 0.0483 µg/mL) |  |  | Tmax [8]: 4.33 h; Cmax [9]: 136 ng/mL; AUC(0-inf) [10]: 608 ng·h/mL; bioavailability [11]: 41.3% |
| FC1CCN(CCOc2ccc(C3CCC4(CC3)OOC3(OO4)C4CC5CC(C4)CC3C5)cc2)CC1 (centres undefined) | 1790 (≈ 3570 µM) | 215 (≈ 429 µM) | 1.13 | 6.42 | 8.96 | 8.49 | 0.1 (≈ 0.0502 µg/mL) | 12 | 23 |  |
| c1cc(C2CCC3(CC2)OOC2(OO3)C3CC4CC(C3)CC2C4)ccc1OCCN1CCOCC1 (centres undefined) |  |  |  |  | 12.4 | 10.1 |  |  |  |  |
| c1cc([C@@H]2CCCC3(C2)OOC2(OO3)C3CC4CC(C3)CC2C4)ccc1CN1CCOCC1 (some centres undefined) | 188 (≈ 413 µM) | 324 (≈ 711 µM) | 1.12 | 6.43 | 12.5 | 11.2 | 0.1 (≈ 0.0456 µg/mL) | 26.2 | 27.1 | Tmax [8]: 2 h; Cmax [9]: 410 ng/mL; AUC(0-inf) [10]: 1440 ng·h/mL; bioavailability [11]: 76.4% |
| FC1CCN(CCOc2ccc([C@H]3CCCC4(C3)OOC3(OO4)C4CC5CC(C4)CC3C5)cc2)CC1 (some centres undefined) | 1270 (≈ 2530 µM) | 413 (≈ 823 µM) | 1.14 | 6.43 | 20.8 | 22.5 | 0.1 (≈ 0.0502 µg/mL) | 16.7 | 26.3 |  |
| c1cc(C2CCCC3(C2)OOC2(OO3)C3CC4CC(C3)CC2C4)ccc1OCCN1CCOCC1 (centres undefined) |  |  |  |  | 16.4 | 17.7 |  |  |  |  |
| c1cc([C@H]2CCCC3(C2)OOC2(OO3)C3CC4CC(C3)CC2C4)ccc1OCCN1CCOCC1 (some centres undefined) | 284 (≈ 585 µM) | 69 (≈ 142 µM) | 1.11 | 6.42 | 16 | 15.8 | 0.1 (≈ 0.0486 µg/mL) | 49.2 | 22.1 |  |
| NC1CCN(C(=O)O[C@@H]2CCC[C@]3(C2)OOC2(O3)C3CC4CC(C3)CC2C4)CC1 (some centres undefined) |  |  |  |  |  |  |  |  |  | microsomal CLint ([14]; liver microsomes, read-out: CLH): 155 µL/min/mg; EC50 (Plasmodium falciparum [6]): 1.8 nM |
| FC1CCN(CCOc2ccc([C@@H]3CCCC4(C3)OOC3(OO4)C4CC5CC(C4)CC3C5)cc2)CC1 (some centres undefined) |  |  |  |  | 17.5 | 19.2 | 0.1 (≈ 0.0502 µg/mL) | 13.5 | 19.8 |  |
| FC1CCN(Cc2ccc([C@@H]3CCCC4(C3)OOC3(OO4)C4CC5CC(C4)CC3C5)cc2)CC1 (some centres undefined) | 95 (≈ 201 µM) | 195 (≈ 413 µM) | 1.12 | 6.43 | 10.6 | 10.3 | 0.1 (≈ 0.0472 µg/mL) | 19.2 | 35.9 |  |
| c1cc([C@@H]2CCCC3(C2)OOC2(OO3)C3CC4CC(C3)CC2C4)ccc1OCCN1CCOCC1 (some centres undefined) |  |  |  |  | 17.4 | 16 | 0.1 (≈ 0.0486 µg/mL) | 21.6 | 22.2 |  |
| FC1CCN(Cc2ccc([C@H]3CCCC4(C3)OOC3(OO4)C4CC5CC(C4)CC3C5)cc2)CC1 (some centres undefined) | 60 (≈ 127 µM) | 189 (≈ 401 µM) | 1.14 | 6.44 | 16.5 | 14.9 | < 0.1 | 30.7 | 26.7 |  |
| c1cc([C@H]2CCCC3(C2)OOC2(OO3)C3CC4CC(C3)CC2C4)ccc1CN1CCOCC1 (some centres undefined) | 165 (≈ 362 µM) | 248 (≈ 544 µM) | 1.13 | 6.42 | 15.2 | 15.2 | 0.1 (≈ 0.0456 µg/mL) | 50.2 | 19.7 |  |
| c1cc(C2CCCC3(C2)OOC2(OO3)C3CC4CC(C3)CC2C4)ccc1CN1CCOCC1 (racemic) |  |  |  |  | 15.4 | 11.2 |  |  |  |  |
| FC1CCN(Cc2ccc(C3CCCC4(C3)OOC3(OO4)C4CC5CC(C4)CC3C5)cc2)CC1 (racemic) |  |  |  |  | 15.7 | 14.4 |  |  |  |  |
| FC1CCN(CCOc2ccc(C3CCCC4(C3)OOC3(OO4)C4CC5CC(C4)CC3C5)cc2)CC1 (racemic) |  |  |  |  | 12.9 | 12.8 |  |  |  |  |
| c1cc([C@H]2CC[C@]3(CC2)OO[C@]2(O3)C3CC4CC(C3)CC2C4)ccc1OCCN1CCOCC1 [ARTEFENOMEL] |  | 120 (≈ 256 µM) |  | 6.6 |  |  | 0.85 (≈ 0.399 µg/mL) |  |  | IC50 (Plasmodium falciparum [15]): 5.1 nM |
| C[C@H]1[C@@H](O)O[C@@H]2O[C@@]3(C)CC[C@H]4[C@H](C)CC[C@@H]1[C@@]24OO3 [ARTENIMOL] |  |  |  |  | 2.59 | 1.02 |  |  |  |  |
| CC(C)(N)CNC(=O)C[C@H]1CC[C@]2(CC1)OO[C@]1(O2)C2CC3CC(C2)CC1C3 [OZ277] |  |  |  |  |  |  |  |  |  | CLH ([14]; microsomes): 5.4 µL/min/mg; t1/2 [16]: 2.13 h |

Source: ChEMBL document CHEMBL4834468, “Enantioselective Synthesis and Profiling of Potent, Nonlinear Analogues of Antimalarial Tetraoxanes E209 and N205” (ACS Med Chem Lett, 2021)
